The source of these data is patent US20260263553A1, “METHODS OF TREATING A LOCALIZED INFECTION WITH LOCALLY ADMINISTERED ANTIBIOTICS” (Osteal Therapeutics, Inc., priority 2023, published 2026).

The conditions of data set [1]: in vivo; cited from earlier work.
The subject of a further data set is common PJI organisms. As to the kind of experiment: Minimum biofilm eradication concentration (MBEC). Format: cell-based. The following applies: multiple common PJI organisms. From the text:
The formation of biofilm, a frequent occurrence in infected wounds with a medical device in situ such as PJI, BII, or FRI, begins early after onset of infection and provides an additional mechanism of resistance to antibiotic therapy. It is well established that the organisms in a mature biofilm structure, formed in a matter of days or a few weeks, are not susceptible to common antibiotics at the typical MIC of planktonic counterparts. […] The concentration at which eradication of an organism in a biofilm is accomplished is known as the minimum biofilm eradication concentration (MBEC) for the specific antimicrobial agent and organism tested. MBEC is not the same for all antimicrobial agents used to treat the same organism, nor is it the same for one antimicrobial agent applied to different strains or organisms.

The nature of data set [2]: Serum concentrations during 7-day local irrigation of the infected joint (PJI clinical investigation). In kind it is in vivo, human. The following applies: daily dose 2.6 g at 2,500 mcg/mL by irrigation for 7 days. On the procedure:
Irrigation of vancomycin and tobramycin within the manufacturer's recommended systemic dose for the treatment of PJI has been investigated clinically. A daily dose of 2.6 g vancomycin at a concentration of 2,500 mcg/mL and a daily dose of 80 mg of tobramycin at 1,600 mcg/mL were administered by irrigation to the infected joint for 7 days following stage one surgery of a two-stage exchange arthroplasty treatment. […] The serum concentrations of vancomycin over a 7-day period for 37 human subjects who received local irrigation of 50 cc at a concentration of 2,500 mcg/mL intermittently are shown in FIG. 6.

For data set [3] the following is noted: instillation of 50,000-100,000 mcg/mL once or twice daily into the joint space; cited from earlier work.

Molecules are shown by their SMILES. Where only a bound is given, the exact number is not on record here.

As for `NC[C@H]1O[C@H](O[C@H]2[C@H](O)[C@@H](O[C@H]3O[C@H](CO)[C@@H](O)[C@H](N)[C@H]3O)[C@H](N)C[C@@H]2N)[C@H](N)C[C@@H]1O` [tobramycin], in data set [1], the “maximum safe level, peak serum concentrations” value is 10 µg/mL and the “sustained trough levels associated with toxicity” value is greater than 2 µg/mL.
Consider `CN[C@H](CC(C)C)C(=O)N[C@H]1C(=O)N[C@@H](CC(N)=O)C(=O)N[C@H]2C(=O)N[C@H]3C(=O)N[C@H](C(=O)N[C@H](C(=O)O)c4cc(O)cc(O)c4-c4cc3ccc4O)[C@H](O)c3ccc(c(Cl)c3)Oc3cc2cc(c3O[C@@H]2O[C@H](CO)[C@@H](O)[C@H](O)[C@H]2O[C@H]2C[C@](C)(N)[C@H](O)[C@H](C)O2)Oc2ccc(cc2Cl)[C@H]1O` [vancomycin], for which, in the data set with common PJI organisms, the MBEC entry is listed as “greater than 4,000 mcg/mL”. In data set [2], the serum concentration levels result is given as “well below the safe serum concentration”. For the same molecule, the “maximum safe level, trough serum concentrations” value in data set [1] was 30 µg/mL. The serum concentrations result in data set [3] was “serum concentrations exceeding safe limits in multiple patients”.
